Data from patent US20220105119A1, “DELIVERY OF AEROSOLIZED MICROMOLAR COMPOSITION CONCENTRATIONS” (Amcyte Pharma Inc., priority 2020, published 2022).
Where “and” joins values, the source holds several entries; their conditions need not be identical. Identical values can stand only once. Like-named read-outs stand apart in the source and are kept apart here.

Assays:
[1] = Ali 2011; cited from earlier work
SARS CoV 2 [2] = conditions: cited from earlier work
[3] = Related substances by HPLC after 1 week at 50° C.; type: physicochemical; conditions: formulations after 1 week at 50° C., drug substance lot as used
From the text: HPLC method used renders chromatograms like the one depicted in FIG. 1 for drug substance and drug product. […] The rest of the peaks may be attributed to related substances. Related substances are substances structurally similar to the drug substance. Some of them come from synthesis impurities and are not increased during shelf life because they cannot form from degradation of the drug substance. Others are degradation products. […] (an extremely high stress condition for an MDI).

SARS CoV 2 [4] = type: cell-based
[5] = cited from earlier work; for Maximum Plasma Concentration: single oral dose; for Time elapsed to reach maximum concentration: after ingestion
[6] = tested on: flaviviruses (yellow fever virus, West Nile virus, dengue virus, Japanese encephalitis virus, tick-borne encephalitis virus); conditions: other viruses; cited from earlier work
[7] = in vivo; cited from earlier work
[8] = calculated

Q: Which forced degradation studies [1] does the source give for Ivermectin here?
A: The forced degradation studies was “susceptible to oxidation and hydrolysis”.

Q: What about the IC50 (SARS CoV 2 [2]; Vero cells culture, read-out: IC50, SARS CoV 2 replication) of the same substance?
A: The IC50 was 2000 nM and ~2000 nM.

Q: What about the “reduction in viral RNA in reference to placebo” value (SARS CoV 2 [2]; at 5 μM, 48 hours after one single application) of the same substance?
A: Its value is 5,000 fold.

Q: And the “viral RNA reduction” value (SARS CoV 2 [2]; at a concentration of (equivalent to ca. 4.4 μg/mL))?
A: Its value is “ca. 5,000 times”.

Q: What about the “Related substance RRT 1.42” value ([3]; alkaline degradation product) of the same substance?
A: Its value is 2.9 % total HPLC area.

Q: And the “Related substance RRT 0.39” value [3]?
A: The value was 0.3 % total HPLC area.

Q: And the “Related substance RRT 0.40” value [3]?
A: Its value is 0.3 % total HPLC area.

Q: And the “Related substance RRT 0.46” value [3]?
A: The value was 0.5 % total HPLC area.

Q: What about the “Related substance RRT 0.78” value [3] of the same substance?
A: Its value is 0.1 % total HPLC area.

Q: And the “Related substance RRT 1.52” value [3]?
A: The value was 0.7 % total HPLC area.

Q: What about the “IC50 as mass concentration” value (SARS CoV 2 [4]) of the same substance?
A: The value was 1.7 µg/mL.

Q: And the “Maximum Plasma Concentration” value ([5]; 150 μg/kg (fasted), Baraka 1996)?
A: The value was “aprox. 55 ng/mL”.

Q: And the “Maximum Plasma Concentration” value ([5]; 200 μg/kg (fed), Schulz 2018)?
A: The value was 40.1 ng/mL.

Q: And the “Maximum Plasma Concentration” value ([5]; 600 μg/kg (children, fed), Schulz 2019)?
A: The value was 66.1 ng/mL.

Q: What about the “Maximum Plasma Concentration” value ([5]; 30 mg (fed), Guzzo 2002) of the same substance?
A: Its value is 260.5 ng/mL.

Q: What about the “Maximum Plasma Concentration” value ([5]; 60 mg (fasted), Guzzo 2002) of the same substance?
A: Its value is 186.2 ng/mL and 165.2 to 186.2 ng/mL.

Q: What about the “Maximum Plasma Concentration” value ([5]; 90 mg (fasted), Guzzo 2002) of the same substance?
A: Its value is 158.1 ng/mL.

Q: And the “Maximum Plasma Concentration” value ([5]; 120 mg (fasted), Guzzo 2002)?
A: The value was 247.8 ng/mL.

Q: And the “Time elapsed to reach maximum concentration” value ([5]; adults)?
A: Its value is 4 to 5 h.

Q: And the “Time elapsed to reach maximum concentration” value ([5]; children)?
A: Its value is 6 to 7 h.

Q: And the “concentration range of antiviral activity” value [6]?
A: The value was 0.003 to 10 µM.

Q: And the Oral bioavailability [7]?
A: The Oral bioavailability was 40-50%.

Q: What about the “concentration in nasal airway surface liquid” value ([8]; 100 μg per nostril in a 50-μL shot, liquid volume 50-375 μL) of the same substance?
A: The value was 533 µg/mL.

Q: What about the “immediate concentration in saliva” value ([8]; one 50-μL shot containing 100 μg, 0.8 mL saliva) of the same substance?
A: Its value is 125 µg/mL.
